From ChEMBL document CHEMBL6134780, “Halogenated retinoid derivatives as dual RARα and RXRα modulators for treating acute promyelocytic leukemia cells” (Eur J Med Chem, 2024)
Activity calls are given as the source filed them. The rule behind the calls is not given here.

Columns and labels:
K562 [1] = experiment: Induction of cell differentiation in human K562 cells at 0.5 uM incubated for 6 days by CD11b staining based flow cytometric analysis; format: functional; details: time 6.0 day
NB-4 [2] = experiment: Cell cycle arrest in human NB4 cells assessed as accumulation of cells at sub-G1 phase at 0.5 uM incubated for 6 days for DAPI staining based flow cytometric analysis (reference value: 6 %); format: functional; details: time 6 day
NB-4 [3] = experiment: Antiproliferative activity against human NB4 cells assessed as inhibition of cell viability incubated for 3 days by CCK8 assay; format: functional, cell-based; details: dose <= 3.5 µM, time 3.0 day
[4] = Induction of apoptosis in human ATRA-resistant NB4-LR2 cells assessed as late apoptotic cells at 1 uM incubated for 24 hrs by Annexin V-FITC/PI staining based flow cytometric analysis (reference value: 7.23 %); format: functional
K562 [5] = experiment: Induction of apoptosis in human K562 cells assessed as early apoptotic cells at 1 uM incubated for 24 hrs by Annexin V-FITC/PI staining based flow cytometric analysis (reference value: 0.91 %); format: functional
NB-4 [6] = experiment: Induction of apoptosis in human NB4 cells assessed as PARP cleavage at >1 uM incubated for 24 hrs by Western blot analysis; format: functional, cell-based
ATRA-resistant NB4-LR2 [7] = experiment: Induction of apoptosis in human ATRA-resistant NB4-LR2 cells assessed as PARP cleavage at 0.5 uM incubated for 24 hrs by Western blot analysis; format: functional, cell-based
HEK293T = experiment: Agonist activity at full length RARalpha LBD R276E mutant (unknown origin) transfected in HEK293T cells co-transfected with pG5luc reporter and Renilla-luc at 1 uM incubated for 12 hrs by luciferase reporter gene assay; format: cell-based; details: Homo sapiens
[8] = biological target: T1, Retinoic acid receptor RXR-beta (Homo sapiens) (UniProt P28702); experiment: Agonist activity at Gal4-fused full length RXRbeta LBD (unknown origin) transfected in HEK293T cells co-transfected with pG5luc reporter and Renilla-luc at 0.1 to 1 uM incubated for 12 hrs by luciferase reporter gene assay; format: cell-based; details: dose 0.1-1 µM
T1 sequence (whole entry): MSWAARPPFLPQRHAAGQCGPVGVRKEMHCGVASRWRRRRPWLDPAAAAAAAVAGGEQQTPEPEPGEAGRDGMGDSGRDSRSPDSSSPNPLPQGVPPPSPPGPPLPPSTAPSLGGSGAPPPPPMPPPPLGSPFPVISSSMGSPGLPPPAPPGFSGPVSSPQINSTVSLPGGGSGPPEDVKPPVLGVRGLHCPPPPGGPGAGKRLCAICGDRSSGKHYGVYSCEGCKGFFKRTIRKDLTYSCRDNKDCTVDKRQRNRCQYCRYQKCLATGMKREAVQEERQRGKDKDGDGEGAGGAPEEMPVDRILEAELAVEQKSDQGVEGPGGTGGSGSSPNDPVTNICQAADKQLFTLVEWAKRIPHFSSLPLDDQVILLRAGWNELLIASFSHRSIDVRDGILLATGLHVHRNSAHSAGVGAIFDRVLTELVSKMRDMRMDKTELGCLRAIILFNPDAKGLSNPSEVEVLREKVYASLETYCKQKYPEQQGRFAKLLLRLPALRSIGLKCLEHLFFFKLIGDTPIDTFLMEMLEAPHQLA

[9] = biological target: Oxysterols receptor LXR-beta (Homo sapiens) (UniProt P55055); experiment: Agonist activity at Gal4-fused full length LXRbeta LBD (unknown origin) transfected in HEK293T cells co-transfected with pG5luc reporter and Renilla-luc at 0.1 to 1 uM incubated for 12 hrs by luciferase reporter gene assay; format: cell-based; details: dose 0.1-1 µM
Chain of Oxysterols receptor LXR-beta (Homo sapiens) (P55055 whole entry, the tested form may be a part): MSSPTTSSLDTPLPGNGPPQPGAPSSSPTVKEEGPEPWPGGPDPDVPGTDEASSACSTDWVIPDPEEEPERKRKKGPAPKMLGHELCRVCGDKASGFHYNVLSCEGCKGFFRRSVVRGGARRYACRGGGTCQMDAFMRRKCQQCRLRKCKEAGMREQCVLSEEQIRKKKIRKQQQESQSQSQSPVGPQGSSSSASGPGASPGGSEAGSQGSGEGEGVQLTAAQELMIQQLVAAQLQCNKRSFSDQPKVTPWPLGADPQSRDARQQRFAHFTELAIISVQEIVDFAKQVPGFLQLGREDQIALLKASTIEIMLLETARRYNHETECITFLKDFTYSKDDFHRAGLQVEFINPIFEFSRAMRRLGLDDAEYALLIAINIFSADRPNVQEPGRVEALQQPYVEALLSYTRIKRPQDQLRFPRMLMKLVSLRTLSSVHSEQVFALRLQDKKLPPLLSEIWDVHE

HeLa = experiment: Induction of 3-flag-tagged PML-RARalpha (unknown origin) degradation transfected in human HeLa cells at 1 to 2 uM incubated for 24 hrs by Western blot analysis; format: cell-based; details: dose 1-2 µM
ATRA-resistant NB4-LR2 [10] = experiment: Cell cycle arrest in human ATRA-resistant NB4-LR2 cells assessed as increase in cyclin B1 expression at 2 uM incubated for 3 to 24 hrs by Western blot analysis; format: functional, cell-based; details: time 3-24 hrs
ATRA-resistant NB4-LR2 [11] = experiment: Induction of mitosis in human ATRA-resistant NB4-LR2 cells assessed as upregulation of pT210-PLK1 expression at 2 uM measured after 3 hrs by Western blot analysis; format: functional, cell-based
NB-4 [12] = experiment: Cell cycle arrest in human NB4 cells assessed as accumulation of cells at G0/G1 phase at 1 uM incubated for 24 hrs by DAPI staining based flow cytometric analysis (reference value: 48 %); format: functional
[13] = Cell cycle arrest in human ATRA-resistant NB4-LR2 cells assessed as accumulation of cells at S phase at 1 uM incubated for 24 hrs by DAPI staining based flow cytometric analysis (reference value: 21 %); format: functional
[14] = Cell cycle arrest in human ATRA-resistant NB4-LR2 cells assessed as accumulation of cells at G2/M phase at 1 uM incubated for 24 hrs by DAPI staining based flow cytometric analysis (reference value: 25 %); format: functional
NB-4 [15] = experiment: Cell cycle arrest in human NB4 cells assessed as accumulation of cells at sub-G1 phase at 2 uM incubated for 3 hrs by DAPI staining based flow cytometric analysis (reference value: 3 %); format: functional
NB-4 [16] = experiment: Cell cycle arrest in human NB4 cells assessed as accumulation of cells at sub-G1 phase at 2 uM incubated for 12 hrs by DAPI staining based flow cytometric analysis (reference value: 3 %); format: functional
[17] = Cell cycle arrest in human ATRA-resistant NB4-LR2 cells assessed as accumulation of cells at S phase at 2 uM incubated for 6 hrs by DAPI staining based flow cytometric analysis (reference value: 19 %); format: functional
[18] = Cell cycle arrest in human ATRA-resistant NB4-LR2 cells assessed as accumulation of cells at G2/M phase at 2 uM incubated for 6 hrs by DAPI staining based flow cytometric analysis (reference value: 15 %); format: functional
[19] = Cell cycle arrest in human ATRA-resistant NB4-LR2 cells assessed as accumulation of cells at G2/M phase at 2 uM incubated for 12 hrs by DAPI staining based flow cytometric analysis (reference value: 15 %); format: functional
NB-4 [20] = experiment: Cell cycle arrest in human NB4 cells transfected with pLVX-shRNA2-negative control assessed as accumulation of cells at G0/G1 phase at 1 uM incubated for 12 hrs by DAPI staining based flow cytometric analysis (reference value: 46 %); format: functional
NB-4 [21] = experiment: Cell cycle arrest in human NB4 cells transfected with pLVX-shPML-RARalpha plasmid assessed as accumulation of cells at sub-G1 phase at 2 uM incubated for 12 hrs by DAPI staining based flow cytometric analysis (reference value: 21 %); format: functional
ATRA-resistant NB4-LR2 [22] = experiment: Induction of apoptosis in human ATRA-resistant NB4-LR2 cells transfected with pLVX-shRXRalpha assessed as increase in cleaved PARP expression at 1 uM incubated for 12 hrs by Western blot analysis; format: functional, cell-based
[23] = Induction of apoptosis in human ATRA-resistant NB4-LR2 cells assessed as late apoptotic cells at 1 uM incubated for 24 hrs by Annexin V-FITC/PI staining based flow cytometric analysis (reference value: 5.62 %); format: functional
NB-4 [24] = experiment: Cell cycle arrest in human NB4 cells assessed as accumulation of cells at G2/M phase at 1 uM incubated for 12 hrs by DAPI staining based flow cytometric analysis (reference value: 26 %); format: functional

Row | Compound | Activity (K562 [1]) | Activity (NB-4 [2]) | Activity (NB-4 [3]) | Activity [4] | Activity (K562 [5]) | Activity (NB-4 [6]) | Activity (ATRA-resistant NB4-LR2 [7]) | Activity (HEK293T) | Activity [8] | Activity [9] | Activity (HeLa) | Activity (ATRA-resistant NB4-LR2 [10]) | Activity (ATRA-resistant NB4-LR2 [11]) | further results
1 | Cc1cc2c(cc1C(=O)/C(Br)=C\c1ccc(C(=O)O)cc1)C(C)(C)CCC2(C)C | inactive | 6% | Dose-dependent-effect | 11.42% | 0.71% | Active | Active | inactive | Weak_effect | Minimal_effect | Active | Active | Active | –
2 | Cc1cc2c(cc1C(=O)/C(Br)=C/c1ccc(C(=O)O)cc1)C(C)(C)CCC2(C)C | inactive | 9% | Dose-dependent-effect | 13.3% | 1% | Active | Active | inactive | Weak_effect | Minimal_effect | Active | Active | Active | Activity (NB-4 [12]): 38%; Activity [13]: 18%; Activity [14]: 30%; Activity (NB-4 [15]): 3%; Activity (NB-4 [16]): 4%; Activity [17]: 7%; Activity [18]: 26%; Activity [19]: 22%; Activity (NB-4 [20]): 30%; Activity (NB-4 [21]): 27%; Activity (ATRA-resistant NB4-LR2 [22]): inactive; Activity [23]: 20.28%; Activity (NB-4 [24]): 61%
